According to PubChem BioAssay AID248 (DTP/NCI, 2004):
“And” between values parts separate entries of the source, which are not always exact repeats. Equal values may be shown once. Toxic doses and inconclusive results are not listed. No stated cut-off is given here; in the data, active means T/C of 150% or more; inactive means T/C below 125%. Square brackets hold non-standard residues; d marks the D form. Peptide text beside a SMILES is read from it. * marks the point of attachment. Cbz = O=C(OCc1ccccc1)*; Sar = CNCC(=O)O

System: L1210 leukemia ip in BDF1 mice, survival T/C
Assay: NCI In Vivo Anticancer Drug Screen. Data for tumor model L1210 Leukemia (intraperitoneal) in B6D2F1 (BDF1) mice
Details: endpoint: mean survival time, higher = longer survival
In short: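 Tumor was transplanted into mice, which were then dosed with test compound or vehicle alone. Survival was recorded for each group, and the treated figure was expressed relative to the control figure.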

[1] = dose: 100.0 mg/kg/injection, schedule: Q01DX009 (ip), vehicle: Klucel (hydroxypropylcellulose) (HPC)
[2] = dose: 200.0 mg/kg/injection, schedule: Q01DX009 (ip), vehicle: Klucel (hydroxypropylcellulose) (HPC)
[3] = dose: 400.0 mg/kg/injection, schedule: Q01DX009 (ip), vehicle: Klucel (hydroxypropylcellulose) (HPC)
[4] = dose: 100.0 mg/kg/injection, schedule: Q01DX001 (ip), vehicle: carboxymethylcellulose (CMC)
[5] = dose: 200.0 mg/kg/injection, schedule: Q01DX001 (ip), vehicle: carboxymethylcellulose (CMC)
[6] = dose: 400.0 mg/kg/injection, schedule: Q01DX001 (ip), vehicle: carboxymethylcellulose (CMC)
[7] = dose: 50.0 mg/kg/injection, schedule: Q01DX009 (ip), vehicle: Klucel (hydroxypropylcellulose) (HPC)
[8] = dose: 100.0 mg/kg/injection, schedule: Q04DX002 (ip), vehicle: saline with Tween-80
[9] = dose: 100.0 mg/kg/injection, schedule: Q01DX001 (ip), vehicle: saline
[10] = dose: 200.0 mg/kg/injection, schedule: Q01DX001 (ip), vehicle: saline
[11] = dose: 400.0 mg/kg/injection, schedule: Q01DX001 (ip), vehicle: saline
[12] = dose: 50.0 mg/kg/injection, schedule: Q01DX001 (ip), vehicle: saline
[13] = dose: 100.0 mg/kg/injection, schedule: Q04DX003 (ip), vehicle: saline with Tween-80
[14] = dose: 200.0 mg/kg/injection, schedule: Q04DX003 (ip), vehicle: saline with Tween-80
[15] = dose: 400.0 mg/kg/injection, schedule: Q04DX003 (ip), vehicle: saline with Tween-80
[16] = dose: 100.0 mg/kg/injection, schedule: Q04DX003 (ip), vehicle: Klucel (hydroxypropylcellulose) (HPC)
[17] = dose: 200.0 mg/kg/injection, schedule: Q04DX003 (ip), vehicle: Klucel (hydroxypropylcellulose) (HPC)
[18] = dose: 100.0 mg/kg/injection, schedule: Q04DX002 (ip), vehicle: saline

Measured: T/C

CN(C)c1ccc(C=O)c(F)c1
inactive: [1] 96 % of control | [2] 100 % of control | [3] 110 % of control

COc1ccc(C2C(=O)NN=C2C)cc1 (centres undefined)
inactive: [4] 96 % of control | [5] 96 % of control | [6] 102 % of control

NS(=O)(=O)c1ccc(N=Nc2ncc[nH]2)cc1
inactive: [7] 94 % of control | [1] 94 % of control | [2] 94 % of control

CCN(CC)CCn1c2ccncc2c2cnccc21
inactive: dose: 25.0 mg/kg/injection, schedule: Q04DX003 (ip), vehicle: saline 96 % of control | dose: 50.0 mg/kg/injection, schedule: Q04DX003 (ip), vehicle: saline 101 % of control | dose: 100.0 mg/kg/injection, schedule: Q04DX003 (ip), vehicle: saline 103 % of control

C=C(C(=O)OC)C(C(=O)OC)=C(N1CCCCC1)N1CCCCC1
inactive: [8] 95 % of control | dose: 200.0 mg/kg/injection, schedule: Q04DX002 (ip), vehicle: saline with Tween-80 95 % of control

[BH3-][NH2+]c1cccc([NH2+][BH3-])c1
inactive: [9] 100 % of control | [10] 96 % of control | [11] 94 % of control

Nc1nc(-c2ccccc2)c(CCCNc2ccc(C(=O)NC(CCC(=O)O)C(=O)O)cc2)c(=O)[nH]1 (centres undefined)
inactive: [12] 98 % of control | [9] 104 % of control | [13] 106 % of control | [10] 98 % of control | [14] 100 % of control | [11] 101 % of control | [15] 89 % of control

O=N/C=C/C(=N/Nc1ccc(C(=O)O)cc1)[N+](=O)[O-]
inactive: [9] 101 % of control | [10] 93 % of control | [11] 93 % of control

CSc1nn(C)c2cc(C)c3ccccc3[n+]12
inactive: dose: 5.0 mg/kg/injection, schedule: Q01DX001 (ip), vehicle: saline 108 % of control | dose: 10.0 mg/kg/injection, schedule: Q01DX001 (ip), vehicle: saline 106 % of control | dose: 20.0 mg/kg/injection, schedule: Q01DX001 (ip), vehicle: saline 103 % of control | dose: 40.0 mg/kg/injection, schedule: Q01DX001 (ip), vehicle: saline 100 % of control

Cc1c(C=O)[nH]c(=O)[nH]c1=O
inactive: [9] 90 % of control | [10] 102 % of control | [11] 96 % of control

Cc1ccc([N+](=O)[O-])cc1NC(=O)N(CCO)C1CCCCC1
inactive: dose: 100.0 mg/kg/injection, schedule: Q04DX002 (ip), vehicle: Klucel (hydroxypropylcellulose) (HPC) 101 % of control | dose: 200.0 mg/kg/injection, schedule: Q04DX002 (ip), vehicle: Klucel (hydroxypropylcellulose) (HPC) 100 % of control | dose: 400.0 mg/kg/injection, schedule: Q04DX002 (ip), vehicle: Klucel (hydroxypropylcellulose) (HPC) 104 % of control

N#CCC(=O)N/N=C\c1ccc2c(c1)OCO2
inactive: [4] 97 % of control | [5] 94 % of control | [6] 97 % of control

CN(CC(=O)O)C(=O)CNC(=O)OCc1ccccc1 (Cbz-Gly-[Sar]-OH)
inactive: [7] 105 % of control | dose: 50.0 mg/kg/injection, schedule: Q04DX003 (ip), vehicle: Klucel (hydroxypropylcellulose) (HPC) 97 % of control | [1] 94 % of control | [16] 97 % of control | [2] 91 % of control | [17] 98 % of control

O=[N+]([O-])c1cc[n+]([O-])cc1
inactive: dose: 6.25 mg/kg/injection, schedule: Q01DX009 (ip), vehicle: saline with Tween-80 98 % of control | dose: 6.25 mg/kg/injection, schedule: Q04DX003 (ip), vehicle: saline with Tween-80 96 % of control | dose: 12.5 mg/kg/injection, schedule: Q01DX009 (ip), vehicle: saline with Tween-80 96 % of control | dose: 12.5 mg/kg/injection, schedule: Q04DX003 (ip), vehicle: saline with Tween-80 96 % of control | dose: 25.0 mg/kg/injection, schedule: Q01DX009 (ip), vehicle: saline with Tween-80 91 % of control | dose: 25.0 mg/kg/injection, schedule: Q04DX003 (ip), vehicle: saline with Tween-80 95 % of control

CCCSc1ccccc1N1CCNCC1
inactive: [12] 103 % of control | [9] 101 % of control | [10] 101 % of control | [11] 103 % of control

Cn1cc(/C=C\C(=O)O)c2nccnc21
inactive: dose: 37.5 mg/kg/injection, schedule: Q01DX009 (ip), vehicle: water 95 % of control | dose: 50.0 mg/kg/injection, schedule: Q01DX009 (ip), vehicle: water 100 % of control | dose: 75.0 mg/kg/injection, schedule: Q01DX009 (ip), vehicle: water 105 % of control | dose: 100.0 mg/kg/injection, schedule: Q01DX009 (ip), vehicle: water 89 % of control | dose: 100.0 mg/kg/injection, schedule: Q04DX003 (ip), vehicle: water 108 % of control | dose: 150.0 mg/kg/injection, schedule: Q01DX009 (ip), vehicle: water 89 % of control | dose: 200.0 mg/kg/injection, schedule: Q01DX009 (ip), vehicle: water 91 % of control | dose: 200.0 mg/kg/injection, schedule: Q04DX003 (ip), vehicle: water 106 % of control | dose: 300.0 mg/kg/injection, schedule: Q01DX009 (ip), vehicle: water 91 % of control

COC(=O)c1cc(NC(=O)Nc2cccc(C(C)=O)c2)cc(C(=O)OC)c1
inactive: [1] 98 % of control | [2] 102 % of control | [3] 93 % of control

CCOC(CCl)[N+](C)(C)C (centres undefined)
inactive: [18] 91 % of control

CCOC1(O)C(=O)c2ccccc2OC1(OCC)c1ccccc1 (centres undefined)
inactive: [12] 93 % of control | [9] 96 % of control | [10] 96 % of control | [11] 98 % of control

COC(OC)c1[nH]c(=S)[nH]c(=O)c1Cc1cc([N+](=O)[O-])ccc1O
inactive: dose: 100.0 mg/kg/injection, schedule: Q01DX009 (ip), vehicle: saline with Tween-80 100 % of control | [13] 101 % of control | dose: 200.0 mg/kg/injection, schedule: Q01DX009 (ip), vehicle: saline with Tween-80 91 % of control | [14] 97 % of control | dose: 400.0 mg/kg/injection, schedule: Q01DX009 (ip), vehicle: saline with Tween-80 93 % of control | [15] 94 % of control

C/C(CN(C)C)=N\O
inactive: [18] 101 % of control | dose: 200.0 mg/kg/injection, schedule: Q04DX002 (ip), vehicle: saline 99 % of control | dose: 400.0 mg/kg/injection, schedule: Q04DX002 (ip), vehicle: saline 92 % of control

CCOC(=O)/C=C/C(=O)N(C)c1ccccc1
inactive: dose: 100.0 mg/kg/injection, schedule: Q01DX001 (ip), vehicle: other 100 % of control | dose: 200.0 mg/kg/injection, schedule: Q01DX001 (ip), vehicle: other 100 % of control | dose: 400.0 mg/kg/injection, schedule: Q01DX001 (ip), vehicle: other 108 % of control

CC(C)C(NC(=O)NCCCl)c1ccccc1 (centres undefined)
inactive: [16] 88 % of control | [17] 88 % of control

CC(C)C(N)(CCCN(C)C)c1cccc2ccccc12 (centres undefined)
inactive: [8] 98 % of control

CCCCNC(=O)C(C)S(=O)(=O)c1ccc(C)cc1 (centres undefined)
inactive: [13] 100 % of control | [14] 100 % of control | [15] 98 % of control

Nc1[nH]c(=O)ncc1-c1cccc(Cl)c1
inactive: dose: 12.5 mg/kg/injection, schedule: Q01DX009 (ip), vehicle: Klucel (hydroxypropylcellulose) (HPC) 103 % of control | dose: 25.0 mg/kg/injection, schedule: Q01DX009 (ip), vehicle: Klucel (hydroxypropylcellulose) (HPC) 95 % of control | [7] 100 % of control and 103 % of control

O=C(COc1cccc(Cl)c1)NCc1ccc(NC(=O)CBr)cc1
inactive: dose: 25.0 mg/kg/injection, schedule: Q01DX001 (ip), vehicle: gum acacia 94 % of control | dose: 50.0 mg/kg/injection, schedule: Q01DX001 (ip), vehicle: gum acacia 96 % of control | dose: 100.0 mg/kg/injection, schedule: Q01DX001 (ip), vehicle: gum acacia 98 % of control | dose: 200.0 mg/kg/injection, schedule: Q01DX001 (ip), vehicle: gum acacia 90 % of control | dose: 400.0 mg/kg/injection, schedule: Q01DX001 (ip), vehicle: gum acacia 90 % of control
